Columns and labels:
[1] = tested on: male rats; experiment: Erection episodes and Penile Erection Index (PEI) in male rats within 2 hours (according to EP 1057829 A1); format: in vivo; conditions: 10 rats
Protocol: (§1) The purpose of the study was to compare the biological activity of the compositions of the present invention with that of sildenafil. In particular, the erection episodes and penile erection indexes of the compounds and compositions in the treatment of male rats and rabbits were determined.
(§2) Details on the determination of PEI values can be found in e.g. H.H. Ang and M.K. Sim, Effects of Eurycoma longifilia Jack on Penile Erection Indes and Homosexual Mounting in Rats, Pharmaceutical Sciences, 3 (1997), 117-19; and A. Benassi-Benelli, F. Ferrari and B. Pellegrini Quaratotti, Penile erection Induced by Apomorphine and N-n-propyl-norapomorphine in Rats, Arch. Int. Pharmacodyn 242 (1979), 241-247. The episode is a description for rat sucking their penus.
(§3) Rabbit experiments where performed according to E. Bischof and K. Schneider, "International Journal of Impotence Research", 13 (2001) 230 - 235, and rat experiments where performed according to EP 1057829 A1.
Further, the effect on penile length of rats was studied and the following results are given in table 2 for a compound disclosed in the invention and in table 3 for sildenafil. The penile length is indicative of the efficacy of the administered medicament.

[2] = tested on: rabbits; experiment: Penile erection index for rabbits in dependency on time (according to Bischof and Schneider); format: in vivo; design: penile erection index: scale not given here
Protocol: as §1, §2, §3
Studying the penile erection index for rabbits in dependency on time yields the results given in table 1 for sildenafil and the compound (III).

CCCc1nn(C)c2c(=O)[nH]c(-c3cc(S(=O)(=O)N4CCN(C)CC4)ccc3OCC)nc12 [Sildenafil, sildenafil]
No. of episodes ([1]; dose 0.0781 mg/kg): 3 | PEI ([1]; dose 0.0781 mg/kg): 90 | No. of episodes ([1]; dose 0.1562 mg/kg): 5 | PEI ([1]; dose 0.1562 mg/kg): 150 | No. of episodes ([1]; dose 0.3125 mg/kg): 7 | PEI ([1]; dose 0.3125 mg/kg): 350 | No. of episodes ([1]; dose 0.6250 mg/kg): 14 | PEI ([1]; dose 0.6250 mg/kg): 980 | efficacy (penile erection index for rabbits), comparison in words ([2]; comparison of sildenafil, compound III and compositions): greater efficacy than compounds III | penile erection index ([2]; time 0 min): 0 | penile erection index ([2]; time 5 min): 18.318 | penile erection index ([2]; time 10 min): 16.694 | penile erection index ([2]; time 15 min): 15.22 | penile erection index ([2]; time 20 min): 13.108 | penile erection index ([2]; time 30 min): 11.218 | penile erection index ([2]; time 40 min): 7.364 | penile erection index ([2]; time 50 min): 2.94
